Counter-ions that a name gives are not always drawn.
Biological target: T1, cloned human 5-HT6 receptor (Homo sapiens, UniProt P50406)
T1 construct: host or cells: HeLa cells (G-418 selection), membrane preparation
T1 sequence (P50406 whole entry): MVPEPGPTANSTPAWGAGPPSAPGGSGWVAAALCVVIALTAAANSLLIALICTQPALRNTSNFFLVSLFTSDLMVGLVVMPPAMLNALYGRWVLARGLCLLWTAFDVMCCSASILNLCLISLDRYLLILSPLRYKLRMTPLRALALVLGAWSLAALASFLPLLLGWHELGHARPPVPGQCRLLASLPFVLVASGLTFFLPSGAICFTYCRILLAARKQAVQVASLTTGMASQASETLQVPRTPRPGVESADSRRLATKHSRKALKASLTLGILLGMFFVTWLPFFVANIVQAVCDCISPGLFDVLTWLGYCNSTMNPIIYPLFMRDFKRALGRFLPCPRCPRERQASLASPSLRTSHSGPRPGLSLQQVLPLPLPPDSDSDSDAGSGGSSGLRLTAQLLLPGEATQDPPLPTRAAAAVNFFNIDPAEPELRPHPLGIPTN
Test: 5-HT6 receptor binding assay ([3H]-LSD radioligand, SPA beads, Hela cell membranes)
Settings: IC50 converted to Ki by the Cheng-Prusoff equation
Procedure: Harvested intact cells are washed once in cold phosphate-buffered saline. The cells are pelleted and resuspended in 100 ml of cold 50 mM Tris, 5 mM EDTA and 5 mM EGTA, pH 7.4. Homogenization is with a Vir Tishear generator, 4 cycles for 30 seconds each at setting 50. The homogenized cells are centrifuged at 700 RPM (1000×g) for 10 minutes and the supernatant is removed. […] The rehomogenized cells are then centrifuged at 700 RPM (1000×g) for 10 minutes and the supernatant is removed. […] The membrane pellet is resupended in 50-8-ml of assay buffer containing HEPES 20 mM, MgCl2 10 mM, NaCl 150 mM, EDTA 1 mM, pH 7.4 and stored frozen in aliqouts at −70° C.
The radioligand binding assay used [^3H]-lysergic acid diethylamide (LSD). The assay is carried out in Wallac 96-well sample plates by the addition of 11 μl of the test sample at the appropriate dilution (the assay employed 11 serial concentrations of samples run in duplicate), 11 μl of radioligand, and 178 μl of a washed mixture of WGA-coated SPA beads and membranes in binding buffer. The plates are shaken for about 5 minutes and then incubated at room temperature for 1 hour. The plates are then loaded into counting cassettes and counted in a Wallac MicroBeta Trilux scintillation counter.
Eleven serial dilutions of test compounds are distributed to assay plates using the PE/Cetus Pro/Pette pipetter. […]
In the case of `CCNc1cc(N2CCNCC2)ccc1S(=O)(=O)c1ccccc1` [Example 13, N-ethyl-2-(phenylsulfonyl)-5-(1-piperazinyl) phenylamine], the Ki is reported as 2.7 nM.

System: not given
Test: not given
Settings: not given
Work on `Nc1cc(N2CCNCC2)ccc1S(=O)(=O)c1ccccc1` (as salt: salt) [Example 1, 2-(phenylsulfonyl)-5-(1-piperazinyl)phenylamine] yielded a melting point of 165 to 166 °C.
Work on `CN1CCN(c2ccc(S(=O)(=O)c3ccccc3)c(N)c2)CC1` [Example 7, 5-(4-methyl-1-piperazinyl)-2-(phenylsulfonyl) phenylamine] yielded a melting point of 90 to 93 °C.
With `Cc1ccc(S(=O)(=O)c2ccc(N3CCNCC3)cc2N)cc1` [Example 5, 2-[(4-methylphenyl)sulfonyl]-5-(1-piperazinyl) phenylamine] the melting point was 102 to 106 °C.
In the case of `CN1CCN(c2ccc(S(=O)(=O)c3ccc(F)cc3)c(N)c2)CC1` [Example 4, 2-[(4-fluorophenyl)sulfonyl]-5-(4-methyl-1-piperazinyl) phenylamine], the melting point is reported as 85 to 89 °C.
`CNc1cc(N2CCCNCC2)ccc1S(=O)(=O)c1cccc(F)c1` (as salt: HCl) showed a melting point of 153 to 154 °C.
In the case of `Cc1ccc(S(=O)(=O)c2ccc(N3CCN(C)CC3)cc2N)cc1` [Example 6, 2-[(4-methylphenyl)sulfonyl]-5-(4-methyl-1-piperazinyl) phenylamine], the melting point is reported as 148 to 151 °C.
In the case of `CN1CCN(c2ccc(S(=O)(=O)c3cccc(F)c3)c(N)c2)CC1` [Example 8, 2-[(3-fluorophenyl)sulfonyl]-5-(4-methyl-1-piperazinyl) phenylamine], the melting point is reported as 89 to 92 °C.
With `Nc1cc(N2CCNCC2)ccc1S(=O)(=O)c1ccc(F)cc1` [Example 3, 2-[(4-fluorophenyl)sulfonyl]-5-(1-piperazinyl) phenylamine] the melting point was 144 to 146 °C.
Molecule `CCNc1cc(N2CCNCC2)ccc1S(=O)(=O)c1ccccc1` (as salt: salt) [Example 13, N-ethyl-2-(phenylsulfonyl)-5-(1-piperazinyl) phenylamine] has a melting point of 121 to 123 °C.
`Nc1cc(N2CCCNCC2)ccc1S(=O)(=O)c1cccc(F)c1` (as salt: hydrochloride) [Example 2, 5-(1,4-diazepan-1-yl)-2-[(3-fluorophenyl)sulfonyl]phenylamine] gave a melting point of 106 to 108 °C.

Reference: patent US20030225065A1, “Bis-arylsulfones” (priority 2002, published 2003)
